± gives the standard deviation of the averaged measurements.
Assays:
FLAVOPIRIDOL = compound: CN1CC[C@H](c2c(O)cc(O)c3c(=O)cc(-c4ccccc4Cl)oc23)[C@H](O)C1 [FLAVOPIRIDOL]; test: surviving fraction relative to DMSO-only wells; higher = less growth inhibition; conditions: exposure time: 5 days
Procedure, shortened: (§1)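 Each tumour cell line was screened three times, and only lines with replicate Pearson r >0.7 and median Z' >0.3 were kept. Cells in log phase were seeded at 250–500 per well in 384-well plates, left 24 hours, then exposed continuously for five days to inhibitors at 0.5, 1, 5, 10, 50, 100, 500 and 1000 nM. Viability was read as CellTiter-Glo luminescence, with surviving fraction normalised to the median of DMSO-only wells.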

17-AAG = compound: C=CCNC1=C2C[C@@H](C)C[C@H](OC)[C@H](O)[C@@H](C)/C=C(\C)[C@H](OC(N)=O)[C@@H](OC)/C=C\C=C(/C)C(=O)NC(=CC1=O)C2=O [17-AAG]; test: as above; conditions: exposure time: 5 days
Procedure, shortened: as §1

Test System	surviving fraction (FLAVOPIRIDOL; 0.5 nM)	surviving fraction (FLAVOPIRIDOL; 1 nM)	surviving fraction (FLAVOPIRIDOL; 5 nM)	surviving fraction (FLAVOPIRIDOL; 10 nM)	surviving fraction (FLAVOPIRIDOL; 50 nM)	surviving fraction (FLAVOPIRIDOL; 100 nM)	surviving fraction (FLAVOPIRIDOL; 500 nM)	surviving fraction (FLAVOPIRIDOL; 1000 nM)	surviving fraction (17-AAG; 0.5 nM)	surviving fraction (17-AAG; 1 nM)	surviving fraction (17-AAG; 5 nM)	surviving fraction (17-AAG; 10 nM)	surviving fraction (17-AAG; 50 nM)	surviving fraction (17-AAG; 100 nM)	surviving fraction (17-AAG; 500 nM)	surviving fraction (17-AAG; 1000 nM)
SYO1 SYNOVIAL	1.02 ± 0.044	1 ± 0.064	0.972 ± 0.073	0.881 ± 0.05	0.515 ± 0.0082	0.144 ± 0.0063	0.0511 ± 0.0021	0.0522 ± 0.004	0.8369 ± 0.0068	0.819 ± 0.049	0.8483 ± 0.0038	0.8 ± 0.038	0.488 ± 0.042	0.183 ± 0.012	0.0407 ± 0.0017	0.0322 ± 0.0014
T47D BREAST	0.974 ± 0.18	1.07 ± 0.022	1.01 ± 0.2	1.11 ± 0.039	1.15 ± 0.051	0.67 ± 0.073	0.195 ± 0.0027	0.148 ± 0.0041	0.943 ± 0.058	0.914 ± 0.035	0.944 ± 0.011	0.958 ± 0.046	0.928 ± 0.023	0.747 ± 0.032	0.4288 ± 0.004	0.425 ± 0.0062
U2OS BONE	1.04 ± 0.049	1.03 ± 0.042	1.1 ± 0.028	1.09 ± 0.053	0.956 ± 0.017	0.112 ± 0.015	0.033 ± 0.0017	0.03 ± 0.001	0.943 ± 0.049	0.9303 ± 0.0058	0.991 ± 0.018	0.886 ± 0.05	0.627 ± 0.0092	0.143 ± 0.004	0.0713 ± 0.0021	0.0763 ± 0.0032
VCAP PROSTATE	1.05 ± 0.085	1.02 ± 0.079	1.42 ± 0.065	1.52 ± 0.076	0.87 ± 0.058	0.324 ± 0.031	0.042 ± 0.01	0.051 ± 0.031	0.94 ± 0.075	0.969 ± 0.054	1.12 ± 0.17	1.03 ± 0.12	0.683 ± 0.066	0.19 ± 0.018	0.167 ± 0.016	0.183 ± 0.03
VP229 BREAST	1.13 ± 0.17	1.11 ± 0.062	1.16 ± 0.073	0.957 ± 0.12	0.564 ± 0.095	0.211 ± 0.13	0.0273 ± 0.0031	0.0273 ± 0.004	0.808 ± 0.1	0.782 ± 0.031	0.842 ± 0.076	0.773 ± 0.085	0.641 ± 0.089	0.387 ± 0.042	0.101 ± 0.013	0.0917 ± 0.012
YAMATO SYNOVIAL	1.12 ± 0.068	1.08 ± 0.053	1.25 ± 0.061	1.11 ± 0.11	0.682 ± 0.082	0.306 ± 0.023	0.26 ± 0.0092	0.29 ± 0.013	0.976 ± 0.059	0.815 ± 0.022	0.936 ± 0.084	0.89 ± 0.039	1.22 ± 0.039	0.735 ± 0.064	0.357 ± 0.0093	0.318 ± 0.0064
ZR751 BREAST	1.28 ± 0.14	1.25 ± 0.051	1.21 ± 0.037	1.25 ± 0.033	1.108 ± 0.0081	0.453 ± 0.057	0.089 ± 0.0095	0.0853 ± 0.0065	1.17 ± 0.2	1.04 ± 0.12	0.994 ± 0.1	0.618 ± 0.13	0.22 ± 0.022	0.228 ± 0.032	0.213 ± 0.013	0.207 ± 0.024

From the supplement of paper PMC6045584
